According to patent publication US20040242542A1, “Compositions and methods for inducing CD81 dependent antiproliferation and for treating hepatitis C and other disorders” (The Regents of the University of California, priority 2003, published 2004):

Columns and labels:
[1] = test system: CD81-enriched cell lines (astrocyte) vs. CD81-deficient cell lines (C6 glioma); experiment: Antiproliferation of CD81-enriched astrocytes vs. CD81-deficient C6 glioma cells; assay type: cell-based; details: for astrocyte-selective antiproliferation: concentration range of 0.1 to 10 μM, astrocytes relative to CD81-deficient cell lines
Text: Further in accordance with the present invention, there are provided methods for synthesis of amantadine analogues by appending primary amines to 1-boraadamantane to evaluate such compounds for CD81 dependent antiproliferation of CD81-enriched cell lines (astrocyte) vs. CD81-deficient cell lines (C6 glioma). Specific details of the synthetic methods of the present invention as well as related data is now published in Wagner, Carl E. et al., Synthesis of-1-Boraadamantaneamine Derivatives with Selective Astrocyte vs C6 Glioma Antiproliferative Activity. A Novel Class of Anti-Hepatitis C Agents with Potential to Bind CD81, J.Med.Chem., Vol.46,2823-2833 (2003) and Wagner, Carl E., Syntheis and First Molecular Structure of a Bis-2-spiro-1boraadamantane Dirivative, Organic Letters, Vol. 6, No. 3, 313-316 (2004), copies of which are filed herewith and the entireties of which are expressly incorporated herein by reference.
The amantadine analogues of the present invention that bind to and activate CD81 may have the potential to prevent or treat HCV infections. Each compound's potential for preventive and therapeutic activity stems from the compound's potential to block viral attachment, virus-cell fusion or virus entry into host cells, or similarly counter potential mechanisms of HCV immune evasion. Out of a library of over 500 compounds including randomly selected small molecules and rationally designed small molecules, only the 1-boraadamantane amine compounds display a significant antiproliferative effect on the CD81-enriched astrocytes relative to the CD81-deficient cell lines. […] Additionally, structurally similar adamantane analogues to the active primary amine 1-boraadamantane complexes identified in this assay were synthesized for testing.
A variety of 1-boraadamatane amine complexes were synthesized by stoichiometric addition of a primary amine to 1-boraadamantane·THF. These complexes were subsequently evaluated for an antiproliferative effect on CD81-enriched cell lines to provide evidence for binding and activation of the CD81 receptor. Additional amantidine analogues structurally similar to the 1-boraadamantane amine complexes were also synthesized.

α4 β1/VCAM cell line = α4 β1/VCAM cell line (Homo sapiens, UniProt P05556+P13612); details: reported in the literature; read-out: IC50 as antagonist for α4 β1/VCAM; cited from earlier work
Sequence of α4 β1/VCAM cell line (P13612 34-1032): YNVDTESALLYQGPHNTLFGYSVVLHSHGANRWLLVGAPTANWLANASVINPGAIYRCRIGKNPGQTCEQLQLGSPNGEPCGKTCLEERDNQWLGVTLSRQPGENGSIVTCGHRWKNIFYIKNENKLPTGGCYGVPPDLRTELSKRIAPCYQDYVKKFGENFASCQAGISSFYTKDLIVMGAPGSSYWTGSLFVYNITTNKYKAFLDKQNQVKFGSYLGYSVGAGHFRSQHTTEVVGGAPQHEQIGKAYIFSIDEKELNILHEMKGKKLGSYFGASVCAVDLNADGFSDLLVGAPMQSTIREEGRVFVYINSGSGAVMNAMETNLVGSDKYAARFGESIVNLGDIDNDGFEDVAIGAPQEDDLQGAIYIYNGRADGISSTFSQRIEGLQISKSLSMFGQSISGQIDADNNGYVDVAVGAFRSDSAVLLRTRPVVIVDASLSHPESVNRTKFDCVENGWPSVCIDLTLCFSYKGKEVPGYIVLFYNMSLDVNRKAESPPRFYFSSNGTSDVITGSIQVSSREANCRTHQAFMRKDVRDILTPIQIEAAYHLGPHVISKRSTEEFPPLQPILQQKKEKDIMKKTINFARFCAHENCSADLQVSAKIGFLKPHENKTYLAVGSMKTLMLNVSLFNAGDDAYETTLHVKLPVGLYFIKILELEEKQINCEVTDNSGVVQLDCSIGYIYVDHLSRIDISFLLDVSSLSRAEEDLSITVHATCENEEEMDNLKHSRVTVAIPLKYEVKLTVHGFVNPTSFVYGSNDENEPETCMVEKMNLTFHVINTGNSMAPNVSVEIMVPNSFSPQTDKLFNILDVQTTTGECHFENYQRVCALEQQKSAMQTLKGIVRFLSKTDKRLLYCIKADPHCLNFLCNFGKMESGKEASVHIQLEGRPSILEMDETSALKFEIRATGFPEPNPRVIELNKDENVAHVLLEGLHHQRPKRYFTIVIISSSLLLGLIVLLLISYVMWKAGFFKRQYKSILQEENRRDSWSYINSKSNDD
Sequence of α4 β1/VCAM cell line (P05556 21-798): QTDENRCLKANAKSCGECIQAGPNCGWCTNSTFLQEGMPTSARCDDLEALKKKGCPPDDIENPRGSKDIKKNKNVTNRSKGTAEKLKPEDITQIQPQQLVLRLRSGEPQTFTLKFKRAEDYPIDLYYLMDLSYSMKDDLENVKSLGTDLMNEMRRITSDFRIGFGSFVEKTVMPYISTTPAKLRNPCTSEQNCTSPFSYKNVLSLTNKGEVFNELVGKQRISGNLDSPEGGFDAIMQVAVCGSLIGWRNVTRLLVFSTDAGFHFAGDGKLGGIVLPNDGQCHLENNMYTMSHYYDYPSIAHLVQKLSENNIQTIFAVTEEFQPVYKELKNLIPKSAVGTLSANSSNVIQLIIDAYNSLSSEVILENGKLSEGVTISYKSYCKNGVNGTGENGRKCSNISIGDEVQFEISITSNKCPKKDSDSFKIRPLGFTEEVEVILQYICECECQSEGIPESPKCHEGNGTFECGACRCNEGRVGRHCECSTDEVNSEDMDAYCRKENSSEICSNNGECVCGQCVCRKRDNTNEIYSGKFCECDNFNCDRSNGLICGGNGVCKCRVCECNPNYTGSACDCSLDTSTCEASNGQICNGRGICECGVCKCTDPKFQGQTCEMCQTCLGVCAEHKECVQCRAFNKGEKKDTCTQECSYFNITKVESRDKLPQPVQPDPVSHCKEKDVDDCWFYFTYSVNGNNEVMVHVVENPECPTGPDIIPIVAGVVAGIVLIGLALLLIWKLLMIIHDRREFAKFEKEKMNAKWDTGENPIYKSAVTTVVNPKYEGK

O=C(O)[C@H](Cc1ccccc1)NC(=O)C12CC3CC(CC(C3)C1)C2 [Complex 15]
antiproliferative character (ranking) ([1]; 0.1 to 10 μM range of concentration): greatest antiproliferative character | astrocyte-selective antiproliferation [1]: astrocyte-selective antiproliferation

1-boraadamantane 1-aminoadamantane complex [Complex 1]
inhibiting the proliferation of the astrocyte cell line (ranking) ([1]; cell based assay, astrocyte cell line): most active compounds

O=C(O)C(CSSCC(NC(=O)C12CC3CC(CC(C3)C1)C2)C(=O)O)NC(=O)C12CC3CC(CC(C3)C1)C2 (stereo not shown) [Compound 26]
IC50 (α4 β1/VCAM cell line): 7.3 µM

CC(C)C[C@H](NC(=O)C12CC3CC(CC(C3)C1)C2)C(=O)O [Complex 16]
astrocyte-selective antiproliferation [1]: astrocyte-selective antiproliferation

Cl.NC12CC3CC(CC(C3)C1)C2 [amantadine, 1-aminoadamantane hydrochloride, reference compound]
reduction of astrocyte proliferation ([1]; at high concentrations (>100 _M)): only slightly reduces astrocyte proliferation

COC(=O)C(CSSCC(NC(=O)C12CC3CC(CC(C3)C1)C2)C(=O)OC)NC(=O)C12CC3CC(CC(C3)C1)C2 [Compound 25, N,N-diadamantylcarbonyl-L-cystine methyl ester]
IC50 (α4 β1/VCAM cell line): > 800 µM
